In US11497740B2, “Use of Jumonji C demethylase inhibitors for the treatment and prevention of chemotherapy resistance and radioresistance in cancer” (THE BOARD OF REGENTS OF THE UNIVERSITY OF TEXAS SYSTEM, priority 2016, dated 2022):

Columns and labels:
Assay type in all cases: cell-based, human
H1299 T18 = assay: MTS cell viability assay, H1299 T18 resistant variant vs H1299 Parental; conditions: for H1299 T18 SR (Selectivity Ratio): SR = [IC50 of Parental]/[IC50 of Resistant], H1299 T18 vs H1299 Parental; for cross-resistance of paclitaxel+carboplatin resistant variants: resistant variants (FIGS. 2D, 9); for loss of cell viability: H1299 T18 and H1299 Parental
Description: (§1) NSCLC lines were treated with paclitaxel+carboplatin combination, given in a ˜2:3 wt/wt ratio, to mirror the clinical dosage values of ˜225 mg/m2 and ˜330 mg/m2, paclitaxel and carboplatin respectively. Note that considering the molecular weights of the two drugs, this translates to approximately a 1 to 3.4 molar ratio. Drugs were given in cycles, following a drug on/drug off treatment scheme. Each cycle consisted of 4-5 days of drug treatment and drug-free culturing for about 1-2 weeks or more to allow the surviving cells to repopulate the plate. […] Untreated parental cells were simultaneously maintained at all times for comparison. Cell viability was assessed in 96-well plates using standard MTS assays (Promega). Treatment duration in MTS assays was 4 days. Drugs were tested in two- or four-fold serial dilutions, totaling 8 different drug concentrations, with 8 replicates per concentration. Response was validated in multiple replicate plates (n≥3).
(§2) Cell viability was assessed by standard MTS assays using Promega's CellTiter reagents. Eight drug concentrations given as two- or four-fold dilutions were tested for each chemotherapeutic agent. In addition, each experiment contained eight replicates per concentration and the entire assay was performed in multiple replicates (n≥3).

H1355 T16 = assay: MTS cell viability assay, H1355 T16 resistant variant vs H1355 Parental; conditions: for H1355 T16 SR (Selectivity Ratio): SR = [IC50 of Parental]/[IC50 of Resistant], H1355 T16 vs H1355 Parental; for cross-resistance of paclitaxel+carboplatin resistant variant: H1355 T16; for loss of cell viability: H1355 T16 and H1355 Parental
Description: as §1, §2

HCC4017 T5 = assay: MTS cell viability assay, HCC4017 T5 resistant variant vs parental; conditions: HCC4017 T5 and parental
Description: as §1, §2

H1693 T8 = assay: MTS cell viability assay, H1693 T8 resistant variant vs parental; conditions: H1693 T8 and parental
Description: as §1, §2

CC[C@H](C)n1cc(C)c2c(C(=O)NCc3c(C)cc(C)[nH]c3=O)cc(-c3ccc(N4CCNCC4)nc3)cc21 [GSK 126]
H1299 T18 SR (Selectivity Ratio) (H1299 T18): 1.0 | H1355 T16 SR (Selectivity Ratio) (H1355 T16): 0.8

O=C(CCCCCN1C(=O)c2cccc3cccc(c23)C1=O)NO [Scriptaid]
H1299 T18 SR (Selectivity Ratio) (H1299 T18): 1.5 | H1355 T16 SR (Selectivity Ratio) (H1355 T16): 1.4

NC1CC1c1ccccc1 (stereo not drawn) [2-PCPA]
H1299 T18 SR (Selectivity Ratio) (H1299 T18): 1.3 | H1355 T16 SR (Selectivity Ratio) (H1355 T16): 1.8

Nc1ncn([C@@H]2O[C@H](CO)[C@@H](O)[C@H]2O)c(=O)n1 [5-azacytidine]
H1299 T18 SR (Selectivity Ratio) (H1299 T18): 0.2 | H1355 T16 SR (Selectivity Ratio) (H1355 T16): 2.6

Nc1nccc2c1ncn2C1C=C(CO)C(O)C1O (stereo not drawn) [DZNep]
H1299 T18 SR (Selectivity Ratio) (H1299 T18): 0.5 | H1355 T16 SR (Selectivity Ratio) (H1355 T16): 1.7

CC(=O)O[C@H]1C(=O)[C@@]2(C)[C@H]([C@H](OC(=O)c3ccccc3)[C@]3(O)C[C@H](OC(=O)[C@H](O)[C@@H](NC(=O)c4ccccc4)c4ccccc4)C(C)=C1C3(C)C)[C@]1(OC(C)=O)CO[C@@H]1C[C@@H]2O [Paclitaxel]
H1299 T18 SR (Selectivity Ratio) (H1299 T18): 0.03 | H1355 T16 SR (Selectivity Ratio) (H1355 T16): 0.02

CCc1c2c(nc3ccc(OC(=O)N4CCC(N5CCCCC5)CC4)cc13)-c1cc3c(c(=O)n1C2)COC(=O)[C@]3(O)CC [Irinotecan]
H1299 T18 SR (Selectivity Ratio) (H1299 T18): 1.1 | H1355 T16 SR (Selectivity Ratio) (H1355 T16): 2.7

COc1ccc(CCc2nc3cc(-c4c(C)noc4C)ccc3n2C[C@H](C)N2CCOCC2)cc1Cl [SGC-CBP30]
H1299 T18 SR (Selectivity Ratio) (H1299 T18): 1.3 | H1355 T16 SR (Selectivity Ratio) (H1355 T16): 0.9

O=C1C(=Cc2cccnc2)C(=O)c2ccccc21 [PRT 4165]
H1299 T18 SR (Selectivity Ratio) (H1299 T18): 1.0 | H1355 T16 SR (Selectivity Ratio) (H1355 T16): 1.4

CCCC(CCC)C(=O)O [Valproic acid]
H1299 T18 SR (Selectivity Ratio) (H1299 T18): 1.4 | H1355 T16 SR (Selectivity Ratio) (H1355 T16): 1.3

COc1cccc2c1C(=O)c1c(O)c3c(c(O)c1C2=O)C[C@@](O)(C(=O)CO)C[C@@H]3O[C@H]1C[C@H](N)[C@H](O)[C@H](C)O1 [Doxorubicin]
H1299 T18 SR (Selectivity Ratio) (H1299 T18): 0.04 | cross-resistance of paclitaxel+carboplatin resistant variants (H1299 T18): cross-resistant | cross-resistance of paclitaxel+carboplatin resistant variant (H1355 T16): cross-resistant | H1355 T16 SR (Selectivity Ratio) (H1355 T16): 0.25

CC(=O)O[C@@]12CO[C@@H]1C[C@H](O)[C@@]1(C)C(=O)[C@H](O)C3=C(C)[C@@H](OC(=O)[C@H](O)[C@@H](NC(=O)OC(C)(C)C)c4ccccc4)C[C@@](O)([C@@H](OC(=O)c4ccccc4)[C@H]21)C3(C)C [Docetaxel]
H1299 T18 SR (Selectivity Ratio) (H1299 T18): 0.03 | cross-resistance of paclitaxel+carboplatin resistant variants (H1299 T18): cross-resistant | cross-resistance of paclitaxel+carboplatin resistant variant (H1355 T16): cross-resistant | H1355 T16 SR (Selectivity Ratio) (H1355 T16): 0.002

CCOC(=O)CCNc1cc(N2CCc3ccccc3CC2)nc(-c2cccnc2)n1 [GSK-J5]
loss of cell viability (H1299 T18): no effect on cell viability | loss of cell viability (H1355 T16): no loss of cell viability

c1cc(SSc2ccns2)sn1 [NU 9056]
H1299 T18 SR (Selectivity Ratio) (H1299 T18): 2.0 | H1355 T16 SR (Selectivity Ratio) (H1355 T16): 1.0

C/C=C1\NC(=O)[C@H]2CSSCC/C=C/[C@H](CC(=O)N[C@H](C(C)C)C(=O)N2)OC(=O)[C@H](C(C)C)NC1=O [Depsipeptide]
H1299 T18 SR (Selectivity Ratio) (H1299 T18): 0.05 | cross-resistance of paclitaxel+carboplatin resistant variants (H1299 T18): cross-resistant | cross-resistance of paclitaxel+carboplatin resistant variant (H1355 T16): cross-resistant | H1355 T16 SR (Selectivity Ratio) (H1355 T16): 0.03

O=C(/C=C/N1C[C@H]2C[C@@H]1CN2c1ccccn1)c1ccccc1O [PFI 3]
H1299 T18 SR (Selectivity Ratio) (H1299 T18): 1.1 | H1355 T16 SR (Selectivity Ratio) (H1355 T16): 2.5

COc1cc2nc(N3CCCN(C)CC3)nc(NC3CCN(Cc4ccccc4)CC3)c2cc1OC [BIX 01294]
H1299 T18 SR (Selectivity Ratio) (H1299 T18): 0.9 | H1355 T16 SR (Selectivity Ratio) (H1355 T16): 1.9

Oc1nc(-c2ccc(C(F)(F)F)cc2)nc2c1CSCC2 [XAV939]
H1299 T18 SR (Selectivity Ratio) (H1299 T18): 2.7 | H1355 T16 SR (Selectivity Ratio) (H1355 T16): 1.0

Cc1sc2c(c1C)C(c1ccc(Cl)cc1)=N[C@@H](CC(=O)OC(C)(C)C)c1nnc(C)n1-2 [JQ1]
H1299 T18 SR (Selectivity Ratio) (H1299 T18): 0.6 | H1355 T16 SR (Selectivity Ratio) (H1355 T16): 6.6

Clc1ccc(N/N=C(/c2ccccc2)c2ccccn2)nc1 (single isomer, unassigned) [Z isomer (Inactive)]
loss of cell viability (H1299 T18): no viability loss | H1299 T18 SR (Selectivity Ratio) (H1299 T18): 1.1 | loss of cell viability (H1355 T16): no loss of cell viability | H1355 T16 SR (Selectivity Ratio) (H1355 T16): 1.0 | loss of cell viability (HCC4017 T5): No loss in cell viability | loss of cell viability (H1693 T8): No loss in cell viability

CC(/C=C/C(=O)NO)=C\[C@@H](C)C(=O)c1ccc(N(C)C)cc1 [Trichostatin A]
H1299 T18 SR (Selectivity Ratio) (H1299 T18): 1.8 | H1355 T16 SR (Selectivity Ratio) (H1355 T16): 2.6

CCC1=C[C@@H]2CN(C1)Cc1c([nH]c3ccccc13)[C@@](C(=O)OC)(c1cc3c(cc1OC)N(C)[C@H]1[C@@](O)(C(=O)OC)[C@H](OC(C)=O)[C@]4(CC)C=CCN5CC[C@]31[C@@H]54)C2 [Vinorelbine]
H1299 T18 SR (Selectivity Ratio) (H1299 T18): 0.03 | cross-resistance of paclitaxel+carboplatin resistant variants (H1299 T18): cross-resistant | cross-resistance of paclitaxel+carboplatin resistant variant (H1355 T16): cross-resistant | H1355 T16 SR (Selectivity Ratio) (H1355 T16): 0.002

NC1(c2ccc(-c3nc4ccn5c(=O)[nH]nc5c4cc3-c3ccccc3)cc2)CCC1 [MK-2206]
H1299 T18 SR (Selectivity Ratio) (H1299 T18): 0.7 | H1355 T16 SR (Selectivity Ratio) (H1355 T16): 1.8

CC/C(=C(\c1ccccc1)c1ccc(OCCN(C)C)cc1)c1ccccc1 [Tamoxifen]
H1299 T18 SR (Selectivity Ratio) (H1299 T18): 1.0 | H1355 T16 SR (Selectivity Ratio) (H1355 T16): 1.0

CN(C)c1ccc(C(=O)NCCCCCCC(=O)NO)cc1 [M344]
H1299 T18 SR (Selectivity Ratio) (H1299 T18): 1.1 | H1355 T16 SR (Selectivity Ratio) (H1355 T16): 1.8

N.N.O=C([O-])C1(C(=O)[O-])CCC1.[Pt+2] [Carboplatin]
H1299 T18 SR (Selectivity Ratio) (H1299 T18): 0.8 | H1355 T16 SR (Selectivity Ratio) (H1355 T16): 1.2

O=C(/C=C/c1cccnc1)NCCCCC1CCN(C(=O)c2ccccc2)CC1 [FK866]
H1299 T18 SR (Selectivity Ratio) (H1299 T18): 0.1 | H1355 T16 SR (Selectivity Ratio) (H1355 T16): 2.1
